Reference: ChEMBL document CHEMBL5505982, “Design, synthesis, biological evaluation and in silico studies of novel quinoline derivatives as potential radioprotective molecules targeting the TLR2 and p53 pathways” (Eur J Med Chem, 2024)
The source made the active and inactive calls. The calls are words filed in the database; no cut-off is given here.

Legend:
AHH-1 [1] = experiment: Induction of apoptosis in human AHH-1 cells assessed as necrotic cells preincubated with compound for 24 hrs followed by irradiation with 4 Gy and measured after 24 hrs of radiation by Annexin V-FITC/PI staining based flow cytometry analysis (reference value: 1.06%); format: functional; settings: time 48 hrs
AHH-1 [2] = experiment: Induction of apoptosis in human AHH-1 cells assessed as late apoptotic cells preincubated with compound for 24 hrs followed by irradiation with 6 Gy and measured after 24 hrs of radiation by Annexin V-FITC/PI staining based flow cytometry analysis (reference value: 29.8%); format: functional; settings: time 48 hrs
AHH-1 [3] = experiment: Radioprotective activity against human AHH-1 cells assessed as decrease in p53 expression pretreated with compound for 24 hrs in presence of ionizing irradiation by Western blotting analysis; format: functional, cell-based
Mus musculus [4] = experiment: Radioprotective activity in irradiated C57BL/6J mouse model assessed as increase in platelets count at 300 mg/kg, ip preincubated with compound for 15 to 1440 mins followed by irradiation with 6.5 Gy and measured after 2 days of radiation; format: functional, organism-based; settings: time 15-4320 min
Toll-like receptor 2 [5] = target: T1, Toll-like receptor 2 (Homo sapiens, UniProt O60603); experiment: Agonist activity at TLR2 in human HUVEC cells assessed as increase in MyD88 level pretreated with compound for 24 hrs in presence of ionizing irradiation by Western blotting analysis; format: cell-based; settings: filed as agonist
AHH-1 [6] = experiment: Induction of apoptosis in human AHH-1 cells assessed as early apoptotic cells preincubated with compound for 24 hrs followed by irradiation with 6 Gy and measured after 24 hrs of radiation by Annexin V-FITC/PI staining based flow cytometry analysis (reference value: 14.1%); format: functional; settings: time 48 hrs
AHH-1 [7] = experiment: Induction of apoptosis in human AHH-1 cells assessed as viable cells preincubated with compound for 24 hrs followed by irradiation with 8 Gy and measured after 24 hrs of radiation by Annexin V-FITC/PI staining based flow cytometry analysis (reference value: 45.1%); format: functional; settings: time 48 hrs
Mus musculus [8] = experiment: Radioprotective activity in irradiated C57BL/6J mouse model assessed as increase in platelets count at 300 mg/kg, ip preincubated with compound for 15 to 1440 mins followed by irradiation with 6.5 Gy and measured after 3 to 10 days of radiation; format: functional, organism-based
AHH-1 [9] = experiment: Induction of apoptosis in human AHH-1 cells assessed as necrotic cells preincubated with compound for 24 hrs followed by irradiation with 8 Gy and measured after 24 hrs of radiation by Annexin V-FITC/PI staining based flow cytometry analysis (reference value: 4.86%); format: functional; settings: time 48 hrs
AHH-1 [10] = experiment: Induction of apoptosis in human AHH-1 cells assessed as late apoptotic cells preincubated with compound for 24 hrs followed by irradiation with 8 Gy and measured after 24 hrs of radiation by Annexin V-FITC/PI staining based flow cytometry analysis (reference value: 33.6%); format: functional; settings: time 48 hrs
AHH-1 [11] = experiment: Radioprotective activity against human AHH-1 cells assessed as decrease in Bax expression pretreated with compound for 24 hrs in presence of ionizing irradiation by Western blotting analysis; format: functional, cell-based
AHH-1 [12] = experiment: Induction of apoptosis in human AHH-1 cells assessed as necrotic cells preincubated with compound for 24 hrs followed by irradiation with 6 Gy and measured after 24 hrs of radiation by Annexin V-FITC/PI staining based flow cytometry analysis (reference value: 3.71%); format: functional; settings: time 48 hrs
Mus musculus [13] = experiment: Radioprotective activity in irradiated C57BL/6J mouse model assessed as increase in platelets count at 300 mg/kg, ip preincubated with compound for 15 to 1440 mins followed by irradiation with 6.5 Gy and measured after 14 days of radiation relative to Ex-rad/control; format: functional, organism-based; settings: time 15-21600 min
AHH-1 [14] = experiment: Radioprotective activity against radiation-induced DNA damage in human AHH-1 cells assessed as reduction in gamma-H2AX foci in nucleus preincubated with compound for 24 hrs followed by irradiation with 1.175 Gy/min and measured after 2 hrs of radiation by fluorescence microscopic analysis; format: functional, cell-based; settings: time 26.0 hrs
Mus musculus [15] = experiment: Radioprotective activity in C57BL/6J mouse model assessed as upregulation of IL-12 expression at 300 mg/kg, ip measured after 2 hrs of 7.5 Gy radiation by ELISA analysis; format: functional, organism-based
Mus musculus [16] = experiment: Radioprotective activity in irradiated C57BL/6J mouse model assessed as increase in RBC count at 300 mg/kg, ip preincubated with compound for 15 to 1440 mins followed by irradiation with 6.5 Gy and measured after 10 to 13 days of radiation; format: functional, organism-based; settings: Erythrocyte
AHH-1 [17] = experiment: Induction of apoptosis in human AHH-1 cells assessed as late apoptotic cells preincubated with compound for 24 hrs followed by irradiation with 4 Gy and measured after 24 hrs of radiation by Annexin V-FITC/PI staining based flow cytometry analysis (reference value: 17.7%); format: functional; settings: time 48 hrs
Mus musculus [18] = experiment: Radioprotective activity in irradiated C57BL/6J mouse model assessed as increase in HGB count at 300 mg/kg, ip preincubated with compound for 15 to 1440 mins followed by irradiation with 6.5 Gy and measured after 10 days of radiation relative to Ex-rad/control; format: functional, organism-based; settings: time 15-15840 min
Mus musculus [19] = experiment: Radioprotective activity in C57BL/6J mouse assessed as survival rate at 30 mg/kg, ip preincubated with compound for 15 to 1440 mins followed by irradiation and measured at day 30; format: functional; settings: light or radiation study, time 15-44640 min
AHH-1 [20] = experiment: Induction of apoptosis in human AHH-1 cells assessed as early apoptotic cells preincubated with compound for 24 hrs followed by irradiation with 8 Gy and measured after 24 hrs of radiation by Annexin V-FITC/PI staining based flow cytometry analysis (reference value: 16.5%); format: functional; settings: time 48 hrs
Mus musculus [21] = experiment: Radioprotective activity in irradiated C57BL/6J mouse model assessed as increase in RBC count at 300 mg/kg, ip preincubated with compound for 15 to 1440 mins followed by irradiation with 6.5 Gy and measured after 13 days of radiation; format: functional, organism-based; settings: Erythrocyte, time 15-20160 min
Mus musculus [22] = experiment: Radioprotective activity in irradiated C57BL/6J mouse model assessed as increase in WBC count at 300 mg/kg, ip preincubated with compound for 15 to 1440 mins followed by irradiation with 6.5 Gy and measured on day 1 (reference value: 43.39%); format: functional; settings: time 15-2880 min
Mus musculus [23] = experiment: Radioprotective activity in C57BL/6J mouse model assessed as upregulation of IL-6 expression at 300 mg/kg, ip measured after 2 hrs of 7.5 Gy radiation by ELISA analysis; format: functional, organism-based
AHH-1 [24] = experiment: Induction of apoptosis in human AHH-1 cells assessed as early apoptotic cells preincubated with compound for 24 hrs followed by irradiation with 4 Gy and measured after 24 hrs of radiation by Annexin V-FITC/PI staining based flow cytometry analysis (reference value: 14.3%); format: functional; settings: time 48 hrs
Mus musculus [25] = experiment: Radioprotective activity against radiation-induced intestinal injury C57BL/6J mouse model assessed as increase in number of crypt foci at 300 mg/kg, ip preincubated with compound for 15 to 1440 mins followed by irradiation with 13 Gy and measured after 84 hrs of radiation by H and E staining based analysis; format: functional, organism-based; settings: time 15-6480 min
Toll-like receptor 2 [26] = target: T1, Toll-like receptor 2; experiment: Binding affinity to TLR2 (unknown origin) assessed as dissociation constant by SPR analysis
Mus musculus [27] = experiment: Radioprotective activity in irradiated C57BL/6J mouse model assessed as increase in HGB count at 300 mg/kg, ip preincubated with compound for 15 to 1440 mins followed by irradiation with 6.5 Gy and measured after 13 days of radiation; format: functional, organism-based; settings: time 15-20160 min
AHH-1 [28] = experiment: Cytotoxicity against human AHH-1 cells assessed as inhibition of cell growth incubated for 24 hrs by CCK-8 assay; format: functional, cell-based; settings: AHH-1, 24 h

T1 sequence (O60603 whole entry): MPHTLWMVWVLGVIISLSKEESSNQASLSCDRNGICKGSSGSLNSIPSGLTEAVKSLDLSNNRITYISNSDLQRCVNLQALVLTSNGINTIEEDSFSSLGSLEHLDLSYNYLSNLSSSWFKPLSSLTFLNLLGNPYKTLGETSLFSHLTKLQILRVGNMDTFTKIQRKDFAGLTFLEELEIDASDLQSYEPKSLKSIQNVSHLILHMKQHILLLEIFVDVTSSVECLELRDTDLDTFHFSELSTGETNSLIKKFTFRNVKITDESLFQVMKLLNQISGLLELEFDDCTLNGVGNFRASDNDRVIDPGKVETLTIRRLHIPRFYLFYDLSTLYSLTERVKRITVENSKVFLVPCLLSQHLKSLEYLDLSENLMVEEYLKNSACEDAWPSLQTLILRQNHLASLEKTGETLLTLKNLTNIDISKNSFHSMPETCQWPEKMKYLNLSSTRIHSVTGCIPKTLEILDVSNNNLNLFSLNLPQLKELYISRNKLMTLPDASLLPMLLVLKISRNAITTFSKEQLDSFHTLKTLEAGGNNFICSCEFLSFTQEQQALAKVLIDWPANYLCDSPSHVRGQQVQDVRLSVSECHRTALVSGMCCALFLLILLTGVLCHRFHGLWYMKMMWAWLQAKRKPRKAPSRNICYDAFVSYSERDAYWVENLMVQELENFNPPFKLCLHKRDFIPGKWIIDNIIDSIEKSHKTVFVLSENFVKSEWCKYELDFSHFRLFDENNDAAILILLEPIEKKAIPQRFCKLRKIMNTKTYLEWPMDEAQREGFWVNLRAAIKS

With `[O-][S+](Cc1ccc(F)cc1)c1ccc2cc(Br)ccc2n1` (stereo not drawn) the Activity (AHH-1 [1]) was 1.4%, the Activity (AHH-1 [2]) was 16.2% and the Activity (AHH-1 [3]) was “Active”. For the same compound, the Activity (Mus musculus [4]) was “Active”, the Activity (Toll-like receptor 2 [5]) was “Active” and the Activity (AHH-1 [6]) was 13.7%. The Activity (AHH-1 [7]) was 67.3%, the Activity (Mus musculus [8]) was “inactive” and the Activity (AHH-1 [9]) was 4%. The Activity (AHH-1 [10]) was 17.8%, the Activity (AHH-1 [11]) was “Active” and the Activity (AHH-1 [12]) was 2.55%. The Activity (Mus musculus [13]) was “Active”, the Activity (AHH-1 [14]) was “Active” and the Activity (Mus musculus [15]) was “Active”. For the same compound, the Activity (Mus musculus [16]) was “Active”, the Activity (AHH-1 [17]) was 12.2% and the Activity (Mus musculus [18]) was “Active”. The survival at 30 mg/kg (Mus musculus [19]) was 80%, the Activity (AHH-1 [20]) was 10.8% and the Activity (Mus musculus [21]) was “Active”. The Activity (Mus musculus [22]) was 38.66%, the Activity (Mus musculus [23]) was “Active” and the Activity (AHH-1 [24]) was 14%. For the same compound, the Activity (Mus musculus [25]) was “Active”, the Kd (Toll-like receptor 2 [26]) was 3.56 µM and the Activity (Mus musculus [27]) was “Active”. The IC50 (AHH-1 [28]) was 154 µM.
